ChEMBL document CHEMBL1132825, “Aminoanthraquinones as novel ligands at the polyamine binding site on the N-methyl-D-aspartate receptor complex” (Bioorg Med Chem Lett, 2000)

Experiments:
Glutamate NMDA receptor [1] = test: Displacement of [3H]MK-801 from N-methyl-D-aspartate glutamate receptor; type: protein-complex assay, Rattus norvegicus
Glutamate NMDA receptor [2] = test: Displacement of [3H]-SPD from N-methyl-D-aspartate glutamate receptor; type: protein-complex assay, Rattus norvegicus

Row | Compound | IC50 (Glutamate NMDA receptor [1]) | IC50 (Glutamate NMDA receptor [2])
1 | Nc1cccc2c1C(=O)c1c(N)ccc(N)c1C2=O | 232 µM | 184 µM
2 | Nc1ccc2c(c1)C(=O)c1ccccc1C2=O | 119 µM | 116 µM
3 | Nc1cccc2c1C(=O)c1ccccc1C2=O | 140 µM | 218 µM
4 | Nc1ccc2c(c1)C(=O)c1ccc(N)cc1C2=O | > 1000 µM | > 1000 µM
5 | O=C1c2ccccc2C(=O)c2ccccc21 [ANTHRAQUINONE] | > 1000 µM | > 1000 µM

The remaining lines, values ahead:

Row | IC50 (Glutamate NMDA receptor [1]) | IC50 (Glutamate NMDA receptor [2]) | Compound
6 | 567 µM | 412 µM | Nc1ccc(N)c2c1C(=O)c1ccccc1C2=O
7 | > 1000 µM | > 1000 µM | Nc1ccc(N)c2c1C(=O)c1c(N)ccc(N)c1C2=O
8 | 158 µM | 179 µM | Nc1ccc(O)c2c1C(=O)c1ccccc1C2=O
9 | > 1000 µM | > 1000 µM | Nc1ccc(O)c2c1C(=O)c1c(N)ccc(O)c1C2=O
10 | 414 µM | 602 µM | Nc1ccc2c(c1N)C(=O)c1ccccc1C2=O
11 | 323 µM | 338 µM | Nc1cccc2c1C(=O)c1cccc(N)c1C2=O
